Laboratory results: US10722599B2, “Lipid assemblies and uses thereof and some pH and electrostatic modulating lipids to be used in said assemblies” (Yissum Research Development Company of the Hebrew …, priority 2015, dated 2020)
Like-named read-outs stand apart in the source and are kept apart here.

Tests used:
BALB/c mice = test: In vivo toxicity, single IV escalating dose; conditions: as formulated siRNA, Ampholip1 up to 10 mg/kg, Ampholip2 up to 5 mg/kg, 24 hours and 7 days
Experimental: Each group comprised six (6) males and six (6) females BALB/cOlaHsd mice, where half of each group (3 males and 3 females) were assigned to 24 hours or 7 days termination time points, respectively. Animals were subjected to clinical hematology and biochemistry assessment at 24 hours and 7 days post dosing, followed by gross macroscopic examination. The following parameters were evaluated for toxicity: mortality, clinical signs, body weight, weight gain, hematology and biochemistry tests.

[1] = test system: orthotopic intraperitoneal tumors of SKOV-3 human ovarian adenocarcinoma cells; test: In vivo SKOV model: miR-34a accumulation in tumor (Ampholip 1); conditions: IP, 7 mg/kg miRNA, days 20, 22, 25, tumors 24 h after last dose, 'miR-34a-SL' = DOPC/Ampholip1/miR-34a-SL (2M), folate formulation = DOPC/Ampholip1/Folate/miR-34a (1M)
Experimental: (§1) In vivo bio-distribution and activity of miR-34a or siRNA formulated with DOPC/Ampholip was evaluated in female nude mice bearing orthotopic intraperitoneal tumors of SKOV-3 human ovarian adenocarcinoma cells.
(§2) This experiment intended to assess the bio-distribution and activity of amphoteric liposomes/miR34a and amphoteric liposomes/miR-34a-SL. To this end, experimental model female nude mice bearing the orthotopic tumors received three series of repeated intraperitoneal (IP) injections (at days 20, 22 and 25) with amphoteric liposomes/miRNA in concentration of 7 mg/kg of miRNA. Twenty-four hours after the last dose the tumors were removed, and RNA extracted.

[2] = test system: orthotopic intraperitoneal tumors of SKOV-3 human ovarian adenocarcinoma cells; conditions: mouse, in vivo, ip, 7 mg/kg
Experimental: as §1, §2

[3] = in vivo, iv, 1 mg/kg
Experimental: (§3) Three animals were injected IV in each group with a dose of 1 mg/kg. Plasma was isolated at serial time points: pre-dosing (time 0), 10 minutes, 30 minutes, 1 hour, 2 hours 4 hours, 6 hours and 24 hours. RNA was extracted from the plasma according to Rosetta Genomics' protocol of miRNA isolation from fluids. qPCR was done for miR-34a, normalized to selected miRNAs: hsa-miR-16-5p, hsa-miR-103a-3p and hsa-miR-23a-3p.

[4] = PK study with formulated miRNA; conditions: 71%-14%, from plasma levels at 30 minutes
Experimental: as §3

CCCCCCCCCCCCC/C=C/[C@@H](O)[C@H](COC(=O)NCCCNCCCCNCCCNC(=O)CCC(=O)O)NC(=O)CCCCCCCCCCCCCCC [Ampholip 2, Carboxy-N-palmitoyl-D-erythro-sphingosyl-1-carbamoyl spermine]
gross pathological findings (BALB/c mice): no gross pathological findings
mortality, clinical signs, body weight, weight gain, hematology and biochemistry vs saline-treated groups (BALB/c mice): No significant statistical difference

miR-34a-SL: hsa-miR-34a conjugated to sphingolipid, SEQ ID NO 1 and 3 (chain 1 UGGCAGUGUCUUAGCUGGUUGU; chain 2 CAAUCAGCAAGUAUACUGCCCU; sphingolipid conjugate, position not given here; listed as Homo sapiens)
fold enrichment of miR-34a in tumor relative to the negative controls [1]: 604 fold
fold enrichment of miR-34a in tumor relative to the negative controls [2]: two
share in circulation at 30 minutes relative to 10 minutes [3]: 14%

miR-34a: hsa-miR-34a naked (non-conjugated) duplex, SEQ ID NO 1 and 2 (chain 1 UGGCAGUGUCUUAGCUGGUUGU; chain 2 ACAAUCAGCAAGUAUACUGCCC; further chemistry not given here; listed as Homo sapiens)
estimate of encapsulation [4]: 57%
plasma stability / bioavailability of miR-34a, in words [3]: rapidly degraded
